Data as given in patent US20060276416A1, “Methods and compositions for treating flushing and drug induced weight gain” (Sirtris Pharmaceuticals, Inc., priority 2005, published 2006).

Experiments:
[1] = test system: TNF-alpha treated adipocytes; assay: Radioactive glucose uptake in TNF-alpha treated insulin resistant adipocytes; format: cell-based; settings: resveratrol 5 μM or 15 μM; roziglitazone 4 μM
recombinant dSir2 = recombinant dSir2 (Drosophila melanogaster, UniProt Q9VK34); assay: dSir2 deacetylation assay (Fluor de Lys); format: biochemical, D. melanogaster; settings: dose-dependent; maximum
recombinant dSir2, sequence (Q9VK34 whole entry): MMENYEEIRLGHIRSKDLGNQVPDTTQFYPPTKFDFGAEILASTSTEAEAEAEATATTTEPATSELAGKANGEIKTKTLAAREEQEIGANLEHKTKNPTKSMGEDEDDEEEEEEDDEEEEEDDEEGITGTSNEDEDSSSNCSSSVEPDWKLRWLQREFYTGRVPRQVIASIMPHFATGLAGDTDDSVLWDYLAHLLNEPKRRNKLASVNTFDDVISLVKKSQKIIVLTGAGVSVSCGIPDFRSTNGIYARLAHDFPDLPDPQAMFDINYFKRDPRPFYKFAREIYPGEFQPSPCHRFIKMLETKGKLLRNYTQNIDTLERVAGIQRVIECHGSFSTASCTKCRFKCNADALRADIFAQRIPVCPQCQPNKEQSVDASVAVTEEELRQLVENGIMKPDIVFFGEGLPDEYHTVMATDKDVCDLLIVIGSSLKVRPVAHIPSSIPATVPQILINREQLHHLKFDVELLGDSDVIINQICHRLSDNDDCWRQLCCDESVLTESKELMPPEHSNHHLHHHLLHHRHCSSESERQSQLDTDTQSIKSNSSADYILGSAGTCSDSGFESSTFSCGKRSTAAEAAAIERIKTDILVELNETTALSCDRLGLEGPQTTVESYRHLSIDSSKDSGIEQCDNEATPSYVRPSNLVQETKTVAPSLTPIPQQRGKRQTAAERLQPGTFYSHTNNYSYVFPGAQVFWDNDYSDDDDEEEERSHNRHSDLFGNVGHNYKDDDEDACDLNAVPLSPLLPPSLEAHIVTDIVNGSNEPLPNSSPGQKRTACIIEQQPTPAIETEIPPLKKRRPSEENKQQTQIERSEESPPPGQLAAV
Description: From 0.1 to 1 μg of SIR-2.1 and 1 μg of dSir2 were used per deacetylation assay as previously described with modifications (SIR-2.1: 200 μM NAD^+, 10 μM Fluor de Lys, FdL; dSir2: 25 μM NAD^+, 10 μM FdL)^26. STACs were dissolved at 10 mM in dimethylsulfoxide (DMSO) the day of the assay. In vitro fluorescence assay results were read in 96-well microplates (Corning Costar 3693) with a Wallac Victor Multilabel counter (Perkin Elmer, excitation at 360 nm, emission at 450 nm). Drosophila S2 cells were grown in Schneider media with fetal calf serum at 23-28° C., seeded at 9×10^4 cells/well, grown overnight and then exposed to 1 μM TSA, 500 μM polyphenols, and 200 μM FdL for 2 hr. Deacetylation of FdL with lysate from whole cells was determined as described^4. Unless otherwise indicated all initial rate measurements were means of three or more replicates obtained with single incubation times, at which point 5% or less of the substrate initially present was deacetylated.

[2] = test system: ribosomal DNA recombination; assay: Ribosomal DNA recombination assay (loss of ADE2 marker); format: cell-based, S. cerevisiae
[3] = target: T1, SIRT1 deacetylase (BIOMOL) (Homo sapiens, UniProt Q96EB6); assay: High-throughput SIRT1 screening protocol (Fluor de Lys-SIRT1, 384 well); format: biochemical; settings: positive controls; roughly 50 μM, 200 μM NAD+, 5 μM Fluor de Lys-SIRT1
T1 construct: purchased BIOMOL
T1 sequence (Q96EB6 1-747): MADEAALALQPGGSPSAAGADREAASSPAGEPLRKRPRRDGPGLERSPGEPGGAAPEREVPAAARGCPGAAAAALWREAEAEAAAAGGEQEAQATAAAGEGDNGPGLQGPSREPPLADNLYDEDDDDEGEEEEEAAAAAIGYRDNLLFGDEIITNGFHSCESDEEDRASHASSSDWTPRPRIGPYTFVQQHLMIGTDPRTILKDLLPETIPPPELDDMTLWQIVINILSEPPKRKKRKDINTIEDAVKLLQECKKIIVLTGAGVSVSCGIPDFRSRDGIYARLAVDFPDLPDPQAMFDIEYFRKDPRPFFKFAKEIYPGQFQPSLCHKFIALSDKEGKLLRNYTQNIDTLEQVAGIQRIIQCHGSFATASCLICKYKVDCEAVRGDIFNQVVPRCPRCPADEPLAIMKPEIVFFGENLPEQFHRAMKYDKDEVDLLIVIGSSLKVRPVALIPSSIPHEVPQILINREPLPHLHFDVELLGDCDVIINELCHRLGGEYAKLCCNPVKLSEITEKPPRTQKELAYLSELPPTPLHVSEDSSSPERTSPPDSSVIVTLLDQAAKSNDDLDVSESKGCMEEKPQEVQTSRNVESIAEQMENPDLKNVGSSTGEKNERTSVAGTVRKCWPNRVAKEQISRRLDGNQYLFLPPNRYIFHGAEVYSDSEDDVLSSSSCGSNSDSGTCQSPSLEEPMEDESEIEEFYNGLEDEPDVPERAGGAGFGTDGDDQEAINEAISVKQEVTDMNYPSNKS
Description: The reaction mixture contains (final): 0.5 units/reaction SIRT1 deacetylase (BIOMOL); 200 μM NAD^+; 5 μM Fluor de Lys-SIRT1 substrate (BIOMOL); buffer (25 mM Tris/Cl, pH 8.0, 137 mM NaCl, 2.7 mM KCl, 1 mM MgCl2, and 1 mg/ml BSA). In addition, a reaction mixture containing no enzyme was made so that each well receiving compound has a corresponding “no enzyme control” well. Reactions were performed in black 384 well plates (NUNC) in a final volume of 25 μl/well.
The reactions were started by combining enzyme and substrate in a reaction mixture immediately prior to aliquoting in plates (or substrate only for “no enzyme control” plates). Mixture were aliquoted to plates using Biotek μFill (Biotek Instruments). Control mixtures were manually added to designated wells. A library compound was added at a desired concentration by pin transfer to both “with enzyme” and “no enzyme” plates. Compounds were added in at least triplicate (with enzyme reaction in duplicate and no enzyme controls) at a final concentration of roughly 50 μM. The plates were incubated at 37° C. for 30-60 minutes. Then 25 μl of 1× Developer II (BIOMOL) plus 2 mM nicotinamide were added to all wells to stop the reactions. The reactions were left for at least 30 minutes at 37° C. for the signal to develop. The plates were read in a microplate-reading fluorometer capable of excitation at a wavelength in the range of 350-380 nm and detection of emitted light in the range of 440-460 nm. A read time of 0.1 sec per well was used.

C. elegans = C. elegans lifespan assay; format: in vivo
Description: Thus, the presence of resveratrol in the growth media of C. elegans extends their lifespan.
Bristol N2 (Caenorhabditis Genetics Center) was used as the wild-type strain. The sir-2.1 mutant strain was generated by backcrossing VC 199 (sir-2.1 (ok434)) to N2 four times. Cultures were grown on standard NGM media and maintained on E. coli strain OP50. For the lifespan assays, synchronized animals were transferred to treatment plates as young adults (2 d after hatching, day 0 of assay), and were transferred to fresh treatment plates every 2 days for the first 6 to 8 days of the assay. […] For some lifespan trials, heat-killed OP50 were used as a food source. OP50 cultures were heated to 65° C. for 30 minutes, then pelleted and resuspended in 1/10 volume in S Basal supplemented with 10 mM MgSO4. In all assays, worms were monitored daily for mortality by gently probing with a platinum pick. Assays were performed at 24° C. To assay worm feeding rates, worms at the indicated stages were placed on treatment plates (no FUdR) for 4-5 hours, then videoed for 1 minute using a Pixelink PL-662 camera. The frame rate was slowed and the pumping rate of the pharynx was counted. To assay fecundity, gravid hermaphrodites (5 per plate, raised from synchronized L1s on normal or treatment plates) were allowed to lay eggs on their respective media for 5 hours, and the total number of eggs was counted.

[4] = test system: AMPK and ACC phosphorylation; assay: AMPK and ACC phosphorylation in mouse embryonic fibroblasts without LKB1; format: cell-based; settings: LKB1 -/- cells; 50, 100, 200 μM
Description: Blots were stained for the presence of P-ACC, P-AMPK, AMPK, or tubulin as indicated on the left.
Similar results were also observed in mouse embryonic fibroblast (MEFs). […] Cells in the left panel were incubated overnight without serum before harvesting; the cells on the right were not incubated under serum free conditions. […] Tubulin served as a loading control.

recombinant human SIRT1 = target: T2, recombinant human SIRT1 (Homo sapiens, UniProt Q96EB6); assay: SIRT1 fluorescent deacetylation assay (p53-382 acetylated peptide); format: biochemical
T2 sequence (Q96EB6 1-747): T1 sequence (Q96EB6 1-747)
Description: To identify compounds that modulate SIRT1 activity, a number of small molecule libraries were screened using a fluorescent deacetylation assay in 96-well plates^26. The substrate used in the assay was a fluorogenic peptide based on the sequence encompassing the p53-K382 acetylation site, a known target of SIRT1 in vivo^20,21,27. […] The small molecule libraries included analogues of nicotinamide, ε-acetyl lysine, NAD^+, nucleotides, nucleotide analogues and purinergic ligands.
From 0.1 to 1 μg of SIRT1 and 1.5 μg of Sir2 were used per deacetylation assay (in 50 μl total reaction) as previously described^26. SIRT1 assays and certain of those for Sir2 employed the p53-382 acetylated substrate (‘Fluor de Lys-SIRT1’, BIOMOL) rather than FdL.
Themed compound libraries (BIOMOL) were used for primary and secondary screening. Most polyphenol compounds were dissolved at 10 mM in dimethylsulfoxide (DMSO) on the day of the assay. For water soluble compounds and negative controls, 1% v/v DMSO was added to the assay. In vitro fluorescence assay results were read in white ½-volume 96-well microplates (Corning Costar 3693) with a CytoFluor™ II fluorescence plate reader (PerSeptive Biosystems, Ex. 360 nm, Em. 460 nm, gain=85). […] Unless otherwise indicated all initial rate measurements were means of three or more replicates, obtained with single incubation times, at which point 5% or less of the substrate initially present had been deacetylated. Calculation of net fluorescence increases included subtraction of a blank value, which in the case of Sir2 was obtained by omitting the enzyme from the reaction and in the case of SIRT1 by adding an inhibitor (200 μM suramin or 1 mM nicotinamide) to the reaction prior to the acetylated substrate. A number of the polyphenols partially quenched the fluorescence produced in the assay and correction factors were obtained by determining the fluorescence increase due to a 3 μM spike of an FdL deacetylated standard (BIOMOL, catalog number KI-142). All error bars represent the standard error of the mean.
All SIRT1 rate measurements used in the calculation of “Ratio to Control Rate” were obtained with 25 μM NAD^+ and 25 μM p53-382 acetylated peptide substrate were performed as described above and in K. T. Howitz et al. Nature (2003) 425: 191. All ratio data were calculated from experiments in which the total deacetylation in the control reaction was 0.25-1.25 μM peptide or 1-5% of the initial concentration of acetylated peptide.

phosphorylation of ACC = assay: ACC phosphorylation Western in 3T3-L1 adipocytes; format: cell-based; settings: day 6 and day 10 of differentiation
Description: ACC was also phosphorylated when the cells were incubated in serum free media overnight before harvesting (lanes marked “SF”). The reason for the extra band in the SIRT1 blot at day 6 is unknown, but it may be a modified form of SIRT1. Tubulin served as a loading control.

SMILES: Oc1ccc(/C=C/c2cc(O)cc(O)c2)cc1 [Resveratrol, 3,5,4′-Trihydroxy-trans-stilbene]
- Insulin sensitivity (radioactive glucose uptake) [1]: partially rescued
- Stimulation of deacetylation (recombinant dSir2): ≤ 2.4 fold
- Effect on rDNA recombination ([2]; in the presence of the Sir2 inhibitor nicotinamide): decreased
- Effect on rDNA recombination ([2]; sir2 strain): does not suppress
- Activation of SIRT1 [3]: 2.2 fold
- Lifespan extension (in words) (C. elegans; sir-2.1 null mutant): did not exhibit a significant lifespan extension
- Lifespan extension (C. elegans; wild-type worms, 100 μM, heat-killed or live E. coli, maximum): up to 15%
- AMPK and ACC phosphorylation [4]: upregulation of both AMPK and ACC phosphorylation
- Concentration at which the activating effect was essentially saturated (recombinant human SIRT1; 25 μM NAD+, 25 μM p53-382 acetylated peptide): 100 λM
- Vmax (recombinant human SIRT1; 1 mM p53-382 acetylated peptide, variable NAD+, +100 μM resveratrol (control 1863)): 1749 AFU/min
- Vmax (recombinant human SIRT1; 3 mM NAD+, variable p53-382 acetylated peptide, +100 μM resveratrol (control 1107)): 926 AFU/min
- Phosphorylation of ACC (phosphorylation of ACC): stimulated the phosphorylation of ACC
